Measurements reported in publication PMC12892976, “Alkylation-based optimization of antifungal FPPS inhibitors yields a potent, broad-spectrum lipophilic zoledronate derivative” (mBio, 2025).
Converted amounts (≈) assume the structure as drawn. Read-outs that look alike come from different tables or passages of the source.

Columns and labels:
[1] = test system: eight fungal species; test: checkerboard interaction with azoles, summary across the eight species; type: cell-based; conditions: geometric mean MIC in combination with azoles
Excerpt: Synergy between lipophilic FPPS inhibitors and azole antifungals was investigated by determining the fractional inhibitory concentration index (FICI) (Fig. 2; Table S1 Fig. S1) ([17]). […]. Derivatives PLA9 and 11, and PDA9, 11, and 12 antagonized azoles in C. albicans, C. neoformans, and C. deuterogattii, yet were largely synergistic in C. glabrata and S. cerevisiae. […].

[2] = test system: HEK-293T cells; test: MTT reduction cytotoxicity assay; type: cell-based; conditions: Homo sapiens, HEK-293T, 72 h, HEK-293T, MTT, 72 h; read-out: HEK IC50
[3] = test system: Aspergillus flavus; test: MIC/MFC broth microdilution (CLSI); conditions: ATCC204304
Protocol: (§1) Antifungal susceptibility was determined by broth microdilution according to the CLSI guidelines described in M27-Ed4 ([16]). […] MFC was determined by back-plating drug-treated cultures from MIC broths onto SDA plates. The MFC was defined as the lowest concentration from which no colonies could be cultured.

[4] = test system: Aspergillus fumigatus; test: checkerboard drug interaction (FICI, MICc); type: cell-based;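 further: simplified diagonal checkerboard screen pairing antifungals with FPPS inhibitors against Aspergillus fumigatus, with FICI calculated under the Loewe additivity model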
Protocol: (§2) Drug interactions between antifungals and FPPS inhibitors were investigated using a simplified checkerboard diagonal screening method ([45]). […] FICIs were determined according to the Loewe additivity model ([17]).

[5] = test system: eight fungal species; test: MIC/MFC summary across the eight fungal species of Table 1; type: cell-based
Protocol: The antifungal activity of these compounds was evaluated according to CLSI guidelines ([16]).

[6] = test system: Saccharomyces cerevisiae; test: checkerboard drug interaction (FICI, MICc); type: cell-based; design: INH MICc / INH MICc (ITR:INH) / INH MICc (KET:INH) / INH MICc (FLC:INH): unit not given beside the values;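 further: simplified diagonal checkerboard screen pairing antifungals with FPPS inhibitors, FICI calculated under the Loewe additivity model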
[7] = test system: Aspergillus flavus; test: checkerboard drug interaction (FICI, MICc);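 further: simplified diagonal checkerboard screen pairing azole antifungals with FPPS inhibitors, FICI calculated under the Loewe additivity model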; type: cell-based; design: INH MICc (KET:INH) / INH MICc (FLC:INH): unit not given beside the values; conditions: A. flavus
[8] = test system: Cryptococcus neoformans; test: checkerboard drug interaction (FICI, MICc);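 on all read-outs here: antifungal plus FPPS inhibitor pairs tested against Cryptococcus neoformans by simplified diagonal checkerboard screening, FICI computed under the Loewe additivity model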; type: cell-based; conditions: C. neoformans; for INH FD (MIC-MICc fold decrease): fold decrease of inhibitor MIC
Protocol: as §2

[9] = test system: Saccharomyces cerevisiae; test: MIC/MFC broth microdilution (CLSI); type: cell-based; conditions: Saccharomyces cerevisiae S288c
Protocol: as §1

[10] = test system: Aspergillus fumigatus; test: MIC/MFC broth microdilution (CLSI); conditions: ATCC204305
Protocol: as §1

[11] = test system: Candida glabrata; test: checkerboard drug interaction (FICI, MICc);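 on all read-outs here: simplified diagonal checkerboard screen pairing antifungals with FPPS inhibitors, FICI calculated under the Loewe additivity model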; type: cell-based; conditions: C. glabrata; for INH FD (MIC-MICc fold decrease): fold decrease of inhibitor MIC
Protocol: as §2

[12] = test system: Trichophyton rubrum; test: MIC/MFC broth microdilution (CLSI); conditions: Trichophyton rubrum
Protocol: as §1

[13] = test system: Cryptococcus deuterogattii; test: checkerboard drug interaction (FICI, MICc);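 on all read-outs here: simplified diagonal checkerboard screen pairing antifungal drugs with FPPS inhibitors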; type: cell-based; conditions: C. deuterogattii; for INH FD (MIC-MICc fold decrease): fold decrease of inhibitor MIC
Protocol: as §2

[14] = test system: Trichophyton rubrum; test: checkerboard drug interaction (FICI, MICc);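 further: simplified diagonal checkerboard screen pairing azole antifungals with FPPS inhibitors, FICI calculated under the Loewe additivity model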; type: cell-based; conditions: T. rubrum
Protocol: as §2

[15] = test system: Cryptococcus neoformans; test: MIC/MFC broth microdilution (CLSI); conditions: Cryptococcus neoformans;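 further: susceptibility testing followed the CLSI M27-Ed4 broth microdilution document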
Protocol: as §1

[16] = test system: Candida glabrata; test: MIC/MFC broth microdilution (CLSI); conditions: Nakaseomyces glabratus, CBS138;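 further: broth microdilution following CLSI M27-Ed4, MFC taken as the lowest drug level yielding no growth once MIC wells were subcultured on SDA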
Protocol: as §1

[17] = test system: Candida albicans; test: checkerboard drug interaction (FICI, MICc);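 on all read-outs here: antifungal plus FPPS inhibitor combinations on Candida albicans tested by a simplified diagonal checkerboard screen, with FICI calculated under the Loewe additivity model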; type: cell-based; conditions: C. albicans; for INH FD (MIC-MICc fold decrease): fold decrease of inhibitor MIC
Protocol: as §2

[18] = test system: Cryptococcus deuterogattii; test: MIC/MFC broth microdilution (CLSI); conditions: Cryptococcus deuterogattii;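 further: broth microdilution per CLSI M27-Ed4. MFC is the lowest concentration yielding no colonies when MIC broths are subcultured onto SDA plates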
Protocol: as §1

[19] = test system: Candida albicans; test: MIC/MFC broth microdilution (CLSI); type: cell-based; conditions: Candida albicans SC5314
Protocol: as §1

[20] = Fractional Inhibitory Concentration Index, fluconazole + inhibitor
[21] = Fractional Inhibitory Concentration Index, itraconazole + inhibitor
[22] = Fractional Inhibitory Concentration Index, ketoconazole + inhibitor
[23] = MIC of the inhibitor in combination with fluconazole
[24] = MIC of the inhibitor in combination with itraconazole
[25] = MIC of the inhibitor in combination with ketoconazole
[26] = MIC-MICc fold decrease of fluconazole, negative = increase
[27] = MIC-MICc fold decrease of itraconazole, negative = increase
[28] = MIC-MICc fold decrease of ketoconazole, negative = increase
[29] = MIC-MICc fold decrease of the inhibitor, with fluconazole
[30] = MIC-MICc fold decrease of the inhibitor, with itraconazole
[31] = MIC-MICc fold decrease of the inhibitor, with ketoconazole
[32] = FLC:INH combination, MIC of the inhibitor in combination with FLC
[33] = FLC:INH combination, fold decrease of FLC MIC
[34] = ITR:INH combination, MIC of the inhibitor in combination with ITR
[35] = ITR:INH combination, fold decrease of ITR MIC
[36] = KET:INH combination, MIC of the inhibitor in combination with KET
[37] = KET:INH combination, fold decrease of KET MIC

CCCCCCCCCCN1CCC[C@H]1C(=O)N[C@H](CC(=O)OC)C(=O)OC [dmPDA10]
GM fungal MICc [1]: 14.7
IC50 [2]: 1.84 µg/mL (≈ 4.62 µM)
MFC [3]: 64 µg/mL (≈ 161 µM)
MIC [3]: 64 µg/mL (≈ 161 µM)
FICI (FLC:INH) [4, 20]: 2.13
FICI (ITR:INH) [4, 21]: 0.63
FICI (KET:INH) [4, 22]: 2.25
INH MICc (FLC:INH) [4, 23]: 32
INH MICc (ITR:INH) [4, 24]: 2
INH MICc (KET:INH) [4, 25]: 32
FLC FD (FLC:INH) [4, 26]: 8
ITR FD (ITR:INH) [4, 27]: 2
KET FD (KET:INH) [4, 28]: 4
INH FD (FLC:INH) [4, 29]: -2
INH FD (ITR:INH) [4, 30]: 8
INH FD (KET:INH) [4, 31]: -2
Geometric mean MFC ([5]; across eight species): 45.3 µg/mL
MFC ([5]; across eight species, read-out: Geometric mean MFC): 45.3 µg/mL (≈ 114 µM)
MIC ([5]; geometric mean across eight species, read-out: GM fungal MIC): 20.7 µg/mL (≈ 51.9 µM)
MIC ([5]; read-out: Geometric mean MIC): 20.7 µg/mL (≈ 51.9 µM)
FICI (FLC:INH) [6, 20]: ≥4
FICI (ITR:INH) [6, 21]: 3
FICI (KET:INH) [6, 22]: 1.13
INH MICc (FLC:INH) [6, 23]: 32
INH MICc (ITR:INH) [6, 24]: 16
INH MICc (KET:INH) [6, 25]: 16
FLC FD (FLC:INH) [6, 26]: -2
ITR FD (ITR:INH) [6, 27]: -2
KET FD (KET:INH) [6, 28]: 8
INH FD (FLC:INH) [6, 29]: -2
INH FD (ITR:INH) [6, 30]: 1
INH FD (KET:INH) [6, 31]: 1
FICI (FLC:INH) [7, 20]: 0.75
FICI (ITR:INH) [7, 21]: 1.5
FICI (KET:INH) [7, 22]: 0.63
INH MICc (FLC:INH) [7, 23]: 32
INH MICc (ITR:INH) [7, 24]: 32
INH MICc (KET:INH) [7, 25]: 8
FLC FD (FLC:INH) [7, 26]: 4
ITR FD (ITR:INH) [7, 27]: 1
KET FD (KET:INH) [7, 28]: 2
INH FD (FLC:INH) [7, 29]: 2
INH FD (ITR:INH) [7, 30]: 2
INH FD (KET:INH) [7, 31]: 8
FICI ([8]; FLC:INH combination): 0.75
INH MICc [8, 32]: 8
FLC FD (MIC-MICc fold decrease) [8, 33]: 4
INH FD (MIC-MICc fold decrease) ([8]; FLC:INH combination): 2
FICI ([8]; ITR:INH combination): 0.75
INH MICc [8, 34]: 8
ITR FD (MIC-MICc fold decrease) [8, 35]: 4
INH FD (MIC-MICc fold decrease) ([8]; ITR:INH combination): 2
FICI ([8]; KET:INH combination): 0.75
INH MICc [8, 36]: 8
KET FD (MIC-MICc fold decrease) [8, 37]: 4
INH FD (MIC-MICc fold decrease) ([8]; KET:INH combination): 2
MFC [9]: 16 µg/mL (≈ 40.1 µM)
MIC [9]: 16 µg/mL (≈ 40.1 µM)
MFC [10]: 32 µg/mL (≈ 80.3 µM)
MIC [10]: 32 µg/mL (≈ 80.3 µM)
FICI ([11]; FLC:INH combination): ≥4
INH MICc [11, 32]: 16
FLC FD (MIC-MICc fold decrease) [11, 33]: 1
INH FD (MIC-MICc fold decrease) ([11]; FLC:INH combination): 1
FICI ([11]; ITR:INH combination): 3
INH MICc [11, 34]: 8
ITR FD (MIC-MICc fold decrease) [11, 35]: 1
INH FD (MIC-MICc fold decrease) ([11]; ITR:INH combination): 2
FICI ([11]; KET:INH combination): ≥4
INH MICc [11, 36]: 16
KET FD (MIC-MICc fold decrease) [11, 37]: -2
INH FD (MIC-MICc fold decrease) ([11]; KET:INH combination): 1
MFC [12]: > 128 µg/mL
MIC [12]: 8 µg/mL (≈ 20.1 µM)
FICI ([13]; FLC:INH combination): 1.25
INH MICc [13, 32]: 16
FLC FD (MIC-MICc fold decrease) [13, 33]: 4
INH FD (MIC-MICc fold decrease) ([13]; FLC:INH combination): 1
FICI ([13]; ITR:INH combination): 1.5
INH MICc [13, 34]: 16
ITR FD (MIC-MICc fold decrease) [13, 35]: 2
INH FD (MIC-MICc fold decrease) ([13]; ITR:INH combination): 1
FICI ([13]; KET:INH combination): 0.53
INH MICc [13, 36]: 8
KET FD (MIC-MICc fold decrease) [13, 37]: 32
INH FD (MIC-MICc fold decrease) ([13]; KET:INH combination): 2
FICI (FLC:INH) [14, 20]: ≥4
FICI (ITR:INH) [14, 21]: ≥4
FICI (KET:INH) [14, 22]: ≥4
INH MICc (FLC:INH) [14, 23]: 64
INH MICc (ITR:INH) [14, 24]: 64
INH MICc (KET:INH) [14, 25]: 64
FLC FD (FLC:INH) [14, 26]: 2
ITR FD (ITR:INH) [14, 27]: 4
KET FD (KET:INH) [14, 28]: 2
INH FD (FLC:INH) [14, 29]: < -4
INH FD (ITR:INH) [14, 30]: < -4
INH FD (KET:INH) [14, 31]: < -4
MFC [15]: 32 µg/mL (≈ 80.3 µM)
MIC [15]: 16 µg/mL (≈ 40.1 µM)
MFC [16]: 32 µg/mL (≈ 80.3 µM)
MIC [16]: 32 µg/mL (≈ 80.3 µM)
FICI ([17]; FLC:INH combination): 1.5
INH MICc [17, 32]: 8
FLC FD (MIC-MICc fold decrease) [17, 33]: 1
INH FD (MIC-MICc fold decrease) ([17]; FLC:INH combination): 2
FICI ([17]; ITR:INH combination): 0.75
INH MICc [17, 34]: 4
ITR FD (MIC-MICc fold decrease) [17, 35]: 2
INH FD (MIC-MICc fold decrease) ([17]; ITR:INH combination): 4
FICI ([17]; KET:INH combination): 0.75
INH MICc [17, 36]: 4
KET FD (MIC-MICc fold decrease) [17, 37]: 2
INH FD (MIC-MICc fold decrease) ([17]; KET:INH combination): 4
MFC [18]: 64 µg/mL (≈ 161 µM)
MIC [18]: 16 µg/mL (≈ 40.1 µM)
MFC [19]: 32 µg/mL (≈ 80.3 µM)
MIC [19]: 16 µg/mL (≈ 40.1 µM)
